Measured values from patent US7205123B2, “Recombinant materials for carotenoid production” (DSM IP Assets B.V., priority 1995, dated 2007).

Key:
[1] = system: Phaffia transformant G418-1; test: Survival of Phaffia transformant G418-1 on YepD agar with increasing G418; type: cell-based, Phaffia rhodozyma
Experimental: To determine the expression of the G418 resistance gene in pGB-Ph9, transformant G418-1 (EP 0 590 707 A1) was exposed to increasing concentrations of G418.
Two dilutions of a G418-1 culture were plated onto YepD agar containing 0–1000 μg/ml G418 (Table 1).

Phaffia (CBS6938) = test: Survival of untransformed Phaffia on YepD agar with increasing G418; type: cell-based, Phaffia rhodozyma; details: Dil. 0 (OD600 = 5)

CN[C@@H]1[C@@H](O)[C@@H](O[C@@H]2[C@@H](O)[C@H](O[C@H]3O[C@H]([C@@H](C)O)[C@@H](O)[C@H](O)[C@H]3N)[C@@H](N)C[C@H]2N)OC[C@]1(C)O [G418]
Survival on YepD agar medium ([1]; G418 200 μg/ml, Dil. 10^-4 (OD600 = 7)): >300 | Survival on YepD agar medium ([1]; G418 200 μg/ml, Dil. 10^-5 (OD600 = 7)): 70 | Survival on YepD agar medium ([1]; G418 300 μg/ml, Dil. 10^-4 (OD600 = 7)): >300 | Survival on YepD agar medium ([1]; G418 300 μg/ml, Dil. 10^-5 (OD600 = 7)): 61 | Survival on YepD agar medium ([1]; G418 400 μg/ml, Dil. 10^-4 (OD600 = 7)): 212 | Survival on YepD agar medium ([1]; G418 400 μg/ml, Dil. 10^-5 (OD600 = 7)): 13 | Survival on YepD agar medium ([1]; G418 500 μg/ml, Dil. 10^-4 (OD600 = 7)): 10 | Survival on YepD agar medium ([1]; G418 500 μg/ml, Dil. 10^-5 (OD600 = 7)): 2 | plated cells survived ([1]; G418 600 μg/ml): less than 1% | Survival on YepD agar medium ([1]; G418 600 μg/ml, Dil. 10^-4 (OD600 = 7)): 0 | Survival on YepD agar medium ([1]; G418 600 μg/ml, Dil. 10^-5 (OD600 = 7)): 0 | Survival on YepD agar medium ([1]; G418 700 μg/ml, Dil. 10^-4 (OD600 = 7)): 0 | Survival on YepD agar medium ([1]; G418 700 μg/ml, Dil. 10^-5 (OD600 = 7)): 0 | Survival on YepD agar medium ([1]; G418 800 μg/ml, Dil. 10^-4 (OD600 = 7)): 0 | Survival on YepD agar medium ([1]; G418 800 μg/ml, Dil. 10^-5 (OD600 = 7)): 0 | Survival on YepD agar medium ([1]; G418 900 μg/ml, Dil. 10^-4 (OD600 = 7)): 0 | Survival on YepD agar medium ([1]; G418 900 μg/ml, Dil. 10^-5 (OD600 = 7)): 0 | Survival on YepD agar medium ([1]; G418 1000 μg/ml, Dil. 10^-4 (OD600 = 7)): 0 | Survival on YepD agar medium ([1]; G418 1000 μg/ml, Dil. 10^-5 (OD600 = 7)): 0 | Survival on YepD agar medium (Phaffia (CBS6938); G418 200 μg/ml): 0 | Survival on YepD agar medium (Phaffia (CBS6938); G418 300 μg/ml): 0 | Survival on YepD agar medium (Phaffia (CBS6938); G418 400 μg/ml): 0 | Survival on YepD agar medium (Phaffia (CBS6938); G418 500 μg/ml): 0 | Survival on YepD agar medium (Phaffia (CBS6938); G418 600 μg/ml): 0 | Survival on YepD agar medium (Phaffia (CBS6938); G418 700 μg/ml): 0 | Survival on YepD agar medium (Phaffia (CBS6938); G418 800 μg/ml): 0 | Survival on YepD agar medium (Phaffia (CBS6938); G418 900 μg/ml): 0 | Survival on YepD agar medium (Phaffia (CBS6938); G418 1000 μg/ml): 0
